Reference: article PMC12164952 (Science Advances, 2025)

T1: ABCB19 (Arabidopsis thaliana, UniProt Q9LJX0)
T1 sequence (Q9LJX0 1-1252): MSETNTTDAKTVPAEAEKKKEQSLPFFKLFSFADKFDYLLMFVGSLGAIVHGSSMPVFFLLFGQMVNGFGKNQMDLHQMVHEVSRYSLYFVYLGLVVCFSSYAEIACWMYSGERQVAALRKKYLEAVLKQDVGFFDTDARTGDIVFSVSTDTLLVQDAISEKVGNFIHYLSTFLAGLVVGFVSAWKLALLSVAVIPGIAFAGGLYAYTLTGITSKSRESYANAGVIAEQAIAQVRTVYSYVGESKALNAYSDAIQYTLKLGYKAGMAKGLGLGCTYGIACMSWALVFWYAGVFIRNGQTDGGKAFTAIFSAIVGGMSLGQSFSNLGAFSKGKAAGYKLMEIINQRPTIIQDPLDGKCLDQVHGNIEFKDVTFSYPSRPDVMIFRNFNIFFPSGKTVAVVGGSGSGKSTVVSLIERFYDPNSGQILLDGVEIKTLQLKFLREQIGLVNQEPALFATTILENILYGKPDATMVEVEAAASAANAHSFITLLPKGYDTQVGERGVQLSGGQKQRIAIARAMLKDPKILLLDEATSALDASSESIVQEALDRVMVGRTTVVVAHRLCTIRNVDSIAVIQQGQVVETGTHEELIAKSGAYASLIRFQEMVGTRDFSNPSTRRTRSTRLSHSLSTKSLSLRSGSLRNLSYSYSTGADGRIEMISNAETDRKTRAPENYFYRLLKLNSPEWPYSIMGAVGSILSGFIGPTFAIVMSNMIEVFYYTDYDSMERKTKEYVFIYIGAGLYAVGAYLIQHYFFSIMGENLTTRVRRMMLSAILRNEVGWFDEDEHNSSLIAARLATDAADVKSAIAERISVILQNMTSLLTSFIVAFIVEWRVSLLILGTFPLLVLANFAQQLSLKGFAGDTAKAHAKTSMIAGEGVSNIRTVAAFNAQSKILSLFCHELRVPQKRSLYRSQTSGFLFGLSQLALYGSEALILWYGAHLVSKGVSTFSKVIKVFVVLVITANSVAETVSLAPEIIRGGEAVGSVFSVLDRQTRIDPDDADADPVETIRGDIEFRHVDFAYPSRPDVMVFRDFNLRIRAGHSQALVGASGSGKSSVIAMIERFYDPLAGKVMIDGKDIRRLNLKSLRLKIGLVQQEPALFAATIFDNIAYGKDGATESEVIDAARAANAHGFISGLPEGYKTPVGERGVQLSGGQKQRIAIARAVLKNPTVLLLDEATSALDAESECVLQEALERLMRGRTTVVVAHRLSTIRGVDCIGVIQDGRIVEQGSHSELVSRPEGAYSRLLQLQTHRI


What was measured:
[1] = target: T1, ABCB19; assay: cryo-EM structure at […] Å in nanodiscs; type: biochemical
[2] = substrate: Nc1ncnc2c1ncn2[C@@H]1O[C@H](COP(=O)(O)OP(=O)(O)OP(=O)(O)O)[C@@H](O)[C@H]1O; assay: purified protein; type: biochemical, Arabidopsis thaliana; details: Mg2+ ATP-binding sites of the NBDs

Row | Molecule | IC50 [1] [µM] | Km [2] [µM]
1 | CCN(CC)c1ccc(C(=O)c2ccccc2C(=O)O)c(O)c1 [BUM, 2-[4-(Diethylamino)-2-hydroxybenzoyl]benzoic acid] | 890 | –
2 | ABCB19 (Arabidopsis thaliana) (protein) MSETNTTDAKTVPAEAEKKKEQSLPFFKLFSFADKFDYLLMFVGSLGAIVHGSSMPVFFLLFGQMVNGFGKNQMDLHQMVHEVSRYSLYFVYLGLVVCFSSYAEIACWMYSGERQVAALRKKYLEAVLKQDVGFFDTDARTGDIVFSVSTDTLLVQDAISEKVGNFIHYLSTFLAGLVVGFVSAWKLALLSVAVIPGIAFAGGLYAYTLTGITSKSRESYANAGVIAEQAIAQVRTVYSYVGESKALNAYSDAIQYTLKLGYKAGMAKGLGLGCTYGIACMSWALVFWYAGVFIRNGQTDGGKAFTAIFSAIVGGMSLGQSFSNLGAFSKGKAAGYKLMEIINQRPTIIQDPLDGKCLDQVHGNIEFKDVTFSYPSRPDVMIFRNFNIFFPSGKTVAVVGGSGSGKSTVVSLIERFYDPNSGQILLDGVEIKTLQLKFLREQIGLVNQEPALFATTILENILYGKPDATMVEVEAAASAANAHSFITLLPKGYDTQVGERGVQLSGGQKQRIAIARAMLKDPKILLLDEATSALDASSESIVQEALDRVMVGRTTVVVAHRLCTIRNVDSIAVIQQGQVVETGTHEELIAKSGAYASLIRFQEMVGTRDFSNPSTRRTRSTRLSHSLSTKSLSLRSGSLRNLSYSYSTGADGRIEMISNAETDRKTRAPENYFYRLLKLNSPEWPYSIMGAVGSILSGFIGPTFAIVMSNMIEVFYYTDYDSMERKTKEYVFIYIGAGLYAVGAYLIQHYFFSIMGENLTTRVRRMMLSAILRNEVGWFDEDEHNSSLIAARLATDAADVKSAIAERISVILQNMTSLLTSFIVAFIVEWRVSLLILGTFPLLVLANFAQQLSLKGFAGDTAKAHAKTSMIAGEGVSNIRTVAAFNAQSKILSLFCHELRVPQKRSLYRSQTSGFLFGLSQLALYGSEALILWYGAHLVSKGVSTFSKVIKVFVVLVITANSVAETVSLAPEIIRGGEAVGSVFSVLDRQTRIDPDDADADPVETIRGDIEFRHVDFAYPSRPDVMVFRDFNLRIRAGHSQALVGASGSGKSSVIAMIERFYDPLAGKVMIDGKDIRRLNLKSLRLKIGLVQQEPALFAATIFDNIAYGKDGATESEVIDAARAANAHGFISGLPEGYKTPVGERGVQLSGGQKQRIAIARAVLKNPTVLLLDEATSALDAESECVLQEALERLMRGRTTVVVAHRLSTIRGVDCIGVIQDGRIVEQGSHSELVSRPEGAYSRLLQLQTHRI | – | 1080
